In patent publication US10597388B2, “Pyridazinone herbicides” (FMC CORPORATION, priority 2014, dated 2020):
Where two headings read alike, the source gives them in different places.

Assays:
Format in all cases: in vivo
[1] = test system: oat, wild (wild oat, Avena fatua); experiment: Test C greenhouse herbicide test, postemergence
Method in brief: (§1)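 Greenhouse postemergence spray on plants 2–18 cm tall; response judged visually after 13–15 d relative to untreated controls using a 0 (none) to 100 (full control) scale.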

kochia (Kochia scoparia) [2] = experiment: Test C greenhouse herbicide test, postemergence
Method in brief: as §1

[3] = test system: barnyardgrass (Echinochloa crus-galli); experiment: Test A greenhouse herbicide test, pre- and postemergence; settings: Echinochloa crus-galli, 240 h; for pest or weed control at 125 g/ha: 125 g ai/ha; for pest or weed control at 500 g/ha: 500 g ai/ha, 0 to 100 scale
Method in brief: (§2)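 Seeds in loam–sand blend received a preemergence directed soil spray; plants at 2–10 cm, one- to two-leaf stage, received postemergence sprays. Compounds in a non-phytotoxic solvent with surfactant. After about 10 d in a greenhouse, injury rated visually versus untreated controls on a 0–100 scale (100 = complete control).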

[4] = test system: ryegrass, Italian (Italian ryegrass, Lolium multiflorum); experiment: as above; settings: Lolium multiflorum, 240 h; for pest or weed control at 125 g/ha: 125 g ai/ha; for pest or weed control at 500 g/ha: 500 g ai/ha, 0 to 100 scale
Method in brief: as §2

[5] = test system: wheat (Triticum aestivum); experiment: as above; settings: Triticum aestivum, post-emergence, 240 h, Postemergence
Method in brief: as §2

[6] = test system: foxtail, giant (giant foxtail, Setaria faberii); experiment: as above; settings: Setaria faberi, 240 h; for pest or weed control at 125 g/ha: 125 g ai/ha; for pest or weed control at 500 g/ha: 500 g ai/ha, 0 to 100 scale
Method in brief: as §2

[7] = test system: ragweed (common ragweed, Ambrosia elatior); experiment: as above; settings: Ambrosia artemisiifolia, 240 h; for pest or weed control at 125 g/ha: 125 g ai/ha; for pest or weed control at 500 g/ha: 500 g ai/ha, 0 to 100 scale
Method in brief: as §2

corn (Zea mays) = experiment: as above; settings: Zea mays, post-emergence, 240 h, Postemergence
Method in brief: as §2

[8] = test system: pigweed (Amaranthus retroflexus); experiment: as above; settings: Amaranthus retroflexus, 240 h; for pest or weed control at 125 g/ha: 125 g ai/ha; for pest or weed control at 500 g/ha: 500 g ai/ha, 0 to 100 scale
Method in brief: as §2

kochia (Kochia scoparia) [9] = experiment: as above; settings: Bassia scoparia, 240 h; for pest or weed control at 125 g/ha: 125 g ai/ha; for pest or weed control at 500 g/ha: 500 g ai/ha, 0 to 100 scale
Method in brief: as §2

[10] = test system: blackgrass (Alopecurus myosuroides); experiment: Test A greenhouse herbicide test, postemergence; settings: Alopecurus myosuroides, post-emergence, 240 h
Method in brief: (§3)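 Pot-grown plants (loam soil/sand blend), 2–10 cm tall at the one- to two-leaf stage, received postemergence sprays of formulated test chemical. After about 10 d in the greenhouse, injury was rated visually against untreated controls on a 0 (no effect) to 100 (complete control) scale.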

[11] = test system: galium (catchweed bedstraw, Galium aparine); experiment: Test A greenhouse herbicide test, postemergence; settings: Galium, post-emergence, 240 h
Method in brief: as §3

[12] = Postemergence, 31 g ai/ha, 0 to 100 scale (0 no effect, 100 complete control)
[13] = Postemergence, 125 g ai/ha, scale 0 to 100, 0 is no effect, 100 is complete control
[14] = Postemergence, 250 g ai/ha, scale 0 to 100, 0 no effect, 100 complete control, 13 to 15 d
[15] = postemergence, 62 g ai/ha, scale 0 to 100, 0 no effect, 100 complete control

## CC(=O)Oc1c(C)nn(C)c(=O)c1-c1c(C)oc2c(C)cc(C)cc12 [Compound 16, 5-(acetyloxy)-2,6-dimethyl-4-(2,5,7-trimethyl-3-benzofuranyl)-3(2H)-pyridazinone]
[1]; [12]
  Oat, Wild plant response rating: 5
[1]; [13]
  Plant response rating, Oat, Wild: 10
[1]; [14]
  Plant response rating, Oat, Wild: 40
[1]; [15]
  Oat, Wild plant response rating: 5
Kochia (Kochia scoparia) [2]; [12]
  Kochia plant response rating: 0
Kochia (Kochia scoparia) [2]; [13]
  Plant response rating, Kochia: 20
Kochia (Kochia scoparia) [2]; [14]
  Plant response rating, Kochia: 25
Kochia (Kochia scoparia) [2]; [15]
  Kochia plant response rating: 0
[3]; post-emergence, Postemergence, visual rating after approx. 10 d, 0 to 100 scale (0 no effect, 100 complete control), read-out: Plant response rating, Barnyardgrass
  pest or weed control at 125 g/ha: 20%
[3]; post-emergence, Postemergence, 0 is no effect, 100 is complete control, read-out: Barnyardgrass plant response rating
  pest or weed control at 500 g/ha: 90%
[3]; pre-emergence, Preemergence, 0 to 100 scale where 0 is no effect and 100 is complete control, read-out: Barnyardgrass plant response rating
  pest or weed control at 125 g/ha: 10%
[3]; pre-emergence, Preemergence, 0 no effect, 100 complete control, read-out: Plant response rating, Barnyardgrass
  pest or weed control at 500 g/ha: 70%
[4]; post-emergence, Postemergence, visual rating after approx. 10 d, 0 to 100 scale (0 no effect, 100 complete control), read-out: Plant response rating, Ryegrass, Italian
  pest or weed control at 125 g/ha: 50%
[4]; post-emergence, Postemergence, 0 is no effect, 100 is complete control, read-out: Ryegrass, Italian plant response rating
  pest or weed control at 500 g/ha: 80%
[4]; pre-emergence, Preemergence, 0 to 100 scale where 0 is no effect and 100 is complete control, read-out: Ryegrass, Italian plant response rating
  pest or weed control at 125 g/ha: 30%
[4]; pre-emergence, Preemergence, 0 no effect, 100 complete control, read-out: Plant response rating, Ryegrass, Italian
  pest or weed control at 500 g/ha: 80%
[5]; 125 g ai/ha, visual rating after approx. 10 d, 0 to 100 scale (0 no effect, 100 complete control), read-out: Plant response rating, Wheat
  plant injury at 125 g/ha: 0%
[5]; 500 g ai/ha, 0 to 100 scale, 0 is no effect, 100 is complete control, read-out: Wheat plant response rating
  plant injury at 500 g/ha: 0%
[6]; post-emergence, Postemergence, visual rating after approx. 10 d, 0 to 100 scale (0 no effect, 100 complete control), read-out: Plant response rating, Foxtail, Giant
  pest or weed control at 125 g/ha: 20%
[6]; post-emergence, Postemergence, 0 is no effect, 100 is complete control, read-out: Foxtail, Giant plant response rating
  pest or weed control at 500 g/ha: 80%
[6]; pre-emergence, Preemergence, 0 to 100 scale where 0 is no effect and 100 is complete control, read-out: Foxtail, Giant plant response rating
  pest or weed control at 125 g/ha: 0%
[6]; pre-emergence, Preemergence, 0 no effect, 100 complete control, read-out: Plant response rating, Foxtail, Giant
  pest or weed control at 500 g/ha: 30%
[7]; post-emergence, Postemergence, visual rating after approx. 10 d, 0 to 100 scale (0 no effect, 100 complete control), read-out: Plant response rating, Ragweed
  pest or weed control at 125 g/ha: 30%
[7]; post-emergence, Postemergence, 0 is no effect, 100 is complete control, read-out: Ragweed plant response rating
  pest or weed control at 500 g/ha: 70%
[7]; pre-emergence, Preemergence, 0 to 100 scale where 0 is no effect and 100 is complete control, read-out: Ragweed plant response rating
  pest or weed control at 125 g/ha: 0%
[7]; pre-emergence, Preemergence, 0 no effect, 100 complete control, read-out: Plant response rating, Ragweed
  pest or weed control at 500 g/ha: 0%
Corn (Zea mays); 125 g ai/ha, visual rating after approx. 10 d, 0 to 100 scale (0 no effect, 100 complete control)
  Corn plant response rating (crop injury, 0 = no effect, 100 = complete kill) at 125 g/ha: 0%
Corn (Zea mays); 500 g ai/ha, 0 to 100 scale, 0 is no effect, 100 is complete control, read-out: Corn plant response rating
  plant injury at 500 g/ha: 0%
[8]; post-emergence, Postemergence, visual rating after approx. 10 d, 0 to 100 scale (0 no effect, 100 complete control), read-out: Plant response rating, Pigweed
  pest or weed control at 125 g/ha: 30%
[8]; post-emergence, Postemergence, 0 is no effect, 100 is complete control, read-out: Pigweed plant response rating
  pest or weed control at 500 g/ha: 40%
[8]; pre-emergence, Preemergence, 0 to 100 scale where 0 is no effect and 100 is complete control, read-out: Pigweed plant response rating
  pest or weed control at 125 g/ha: 0%
[8]; pre-emergence, Preemergence, 0 no effect, 100 complete control, read-out: Plant response rating, Pigweed
  pest or weed control at 500 g/ha: 70%
Kochia (Kochia scoparia) [9]; post-emergence, Postemergence, visual rating after approx. 10 d, 0 to 100 scale (0 no effect, 100 complete control), read-out: Plant response rating, Kochia
  pest or weed control at 125 g/ha: 50%
Kochia (Kochia scoparia) [9]; post-emergence, Postemergence, 0 is no effect, 100 is complete control, read-out: Kochia plant response rating
  pest or weed control at 500 g/ha: 60%
Kochia (Kochia scoparia) [9]; pre-emergence, Preemergence, 0 to 100 scale where 0 is no effect and 100 is complete control, read-out: Kochia plant response rating
  pest or weed control at 125 g/ha: 0%
Kochia (Kochia scoparia) [9]; pre-emergence, Preemergence, 0 no effect, 100 complete control, read-out: Plant response rating, Kochia
  pest or weed control at 500 g/ha: 30%
[10]; 125 g ai/ha, visual rating after approx. 10 d, 0 to 100 scale (0 no effect, 100 complete control), read-out: Plant response rating, Blackgrass
  pest or weed control at 125 g/ha: 10%
[10]; 500 g ai/ha, 0 to 100 scale, 0 is no effect, 100 is complete control, read-out: Blackgrass plant response rating
  pest or weed control at 500 g/ha: 30%
[11]; 125 g ai/ha, visual rating after approx. 10 d, 0 to 100 scale (0 no effect, 100 complete control), read-out: Plant response rating, Galium
  pest or weed control at 125 g/ha: 90%
[11]; 500 g ai/ha, 0 to 100 scale, 0 is no effect, 100 is complete control, read-out: Galium plant response rating
  pest or weed control at 500 g/ha: 100%
